Literature values, collected in patent US20040037835A1, “Cytotoxic agents” (priority 1995, published 2004).

How the values were obtained:
E. coli nitroreductase = E. coli nitroreductase (Escherichia coli, UniProt P38489)
CHO cells = settings: in vitro co-culture of Walker cells and CHO cells

E. coli nitroreductase, sequence (P38489 whole entry): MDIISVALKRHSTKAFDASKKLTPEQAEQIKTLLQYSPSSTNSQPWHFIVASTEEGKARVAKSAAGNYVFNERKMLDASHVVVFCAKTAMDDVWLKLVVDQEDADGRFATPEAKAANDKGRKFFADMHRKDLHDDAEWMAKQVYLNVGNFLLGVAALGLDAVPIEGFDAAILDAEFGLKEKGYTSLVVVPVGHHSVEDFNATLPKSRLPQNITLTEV

SMILES: NC(=O)c1cc(N2CC2)c([N+](=O)[O-])cc1[N+](=O)[O-] [CB 1954, 5-(aziridin-1-yl)-2,4-dinitrobenzamide]
- substrate for the enzyme (E. coli nitroreductase): poor substrate
- bystander effect: kill of CHO cells that do not contain nitroreductase (CHO cells): substantially killed
